Consider 1 molecule from article PMC9410764, “EmCyclinD-EmCDK4/6 complex is involved in the host EGF-mediated proliferation of Echinococcus multilocularis germinative cells via the EGFR-ERK pathway” (Frontiers in Microbiology, 2022).

The test addresses T1, EmCyclinD-EmCDK4/6 complex (Echinococcus multilocularis, UniProt A0A068YJR9).
T1 construct: gene EmuJ_001021000
T1 sequence (A0A068YJR9 1-711): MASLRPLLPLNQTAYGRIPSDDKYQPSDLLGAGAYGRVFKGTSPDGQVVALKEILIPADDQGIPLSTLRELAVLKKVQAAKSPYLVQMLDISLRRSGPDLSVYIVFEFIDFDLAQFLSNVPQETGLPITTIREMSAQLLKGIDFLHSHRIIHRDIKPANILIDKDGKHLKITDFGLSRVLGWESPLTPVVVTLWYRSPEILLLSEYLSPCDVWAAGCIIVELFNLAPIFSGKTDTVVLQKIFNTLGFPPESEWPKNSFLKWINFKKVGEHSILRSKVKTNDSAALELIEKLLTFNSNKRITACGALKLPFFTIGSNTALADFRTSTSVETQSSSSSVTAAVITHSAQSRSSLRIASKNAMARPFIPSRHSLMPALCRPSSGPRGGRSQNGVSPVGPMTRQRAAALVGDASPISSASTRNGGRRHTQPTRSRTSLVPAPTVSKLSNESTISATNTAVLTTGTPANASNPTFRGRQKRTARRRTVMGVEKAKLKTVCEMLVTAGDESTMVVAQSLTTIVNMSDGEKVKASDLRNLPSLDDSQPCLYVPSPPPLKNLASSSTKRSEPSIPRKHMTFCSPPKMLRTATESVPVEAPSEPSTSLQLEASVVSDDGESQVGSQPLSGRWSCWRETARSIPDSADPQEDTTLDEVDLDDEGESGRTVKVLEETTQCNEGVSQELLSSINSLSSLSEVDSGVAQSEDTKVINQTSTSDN
T1 sequence (A0A068Y4X2 1-386 partner): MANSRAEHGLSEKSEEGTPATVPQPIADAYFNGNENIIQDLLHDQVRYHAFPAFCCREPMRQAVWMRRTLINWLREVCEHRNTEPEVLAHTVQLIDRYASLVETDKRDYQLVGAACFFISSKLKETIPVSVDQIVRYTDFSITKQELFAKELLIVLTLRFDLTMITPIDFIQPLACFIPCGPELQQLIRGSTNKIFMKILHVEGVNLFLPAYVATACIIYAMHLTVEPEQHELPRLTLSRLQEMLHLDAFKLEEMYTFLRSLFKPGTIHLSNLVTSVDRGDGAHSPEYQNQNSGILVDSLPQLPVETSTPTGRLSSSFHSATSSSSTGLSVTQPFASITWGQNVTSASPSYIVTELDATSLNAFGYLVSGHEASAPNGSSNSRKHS
The note with it: human Rb1 substrate (3 ug); 25 uM ATP, 20 mM MgCl2, 1 mM DTT, pH 7.5, RT, 20 min.

Turning to `Nc1ncnc2c1ncn2[C@@H]1O[C@H](COP(=O)(O)OP(=O)(O)OP(=O)(O)O)[C@@H](O)[C@H]1O` [ATP], the kinase activity result is given as “the EmCDK4/6-EmCyclinD complex displayed kinase activity against human Rb1”.
